Read-outs that look alike come from different tables or passages of the source. Ends that are not written are not given here.

For orientation: Kd means the equilibrium constant for the complex coming apart.

For test [1], the target named is T1, GST-Als5 (Candida albicans, UniProt Q5A8T7).
T1 construct: made in house; host or cells: E. coli BL21(DE3)
The test can be described thus: biochemical. The test is classed as binding. Particulars: for Kd: 0.02 mg/ml protein, excitation 295 nm, one-site saturation model. The method, then: (§1) Binding of GST-Als5 and GST-Als5-SS proteins to different peptides was monitored by fluorescence emission spectroscopy. Freshly purified samples of protein were used each time. 0.02 mg/ml of the proteins were taken and the tryptophan-specific emission spectra were monitored between 310 nm to 400 nm by excitation at 295 nm. The peptides were titrated into the protein solutions, incubated for 5 minutes after each addition, and emission spectra recorded. Both excitation and emission bandwidths were fixed at 5 nm and all spectra were averages of 5 scans. All spectra were corrected for buffer and peptide backgrounds.
(§2) All binding data were analyzed using a one-site saturation model. Binding studies were done at different temperatures, and ΔG^o for the protein-peptide interactions calculated using the equation: ΔG^o = –RTlnKa. ΔH^o and ΔS^o were obtained from the slope and intercept of the van’t Hoff plots according to the equation: [drawing 1]
The change in fluorescence emission intensity upon titration with the peptide ligands was monitored (see Figures S8A, S8C, S8E, S8G and Figures S9A, S9C, S9E, S9G, respectively) and the binding plots obtained (Figures S8B, S8D, S8F, S8H and Figures S9B, S9D, S9F, S9H, respectively) were used to calculate dissociation constants (Kd) for the interaction (Table 1).
Supplementary file pone.0035305.s008.tif: Figure S8 Binding of GST-Als5 with different peptides. A, C, E and G show representative fluorescence spectra obtained upon binding of GST-Als5 with the peptide EHAHTPR at 15 °C, 27 °C, 37 °C and 47 °C, respectively. B, D, F and H represent the binding plots of GST-Als5 with different peptides at 15 °C, 27 °C, 37 °C and 47 °C, respectively. Each data point gives the average of three independent measurements done in duplicates and the error bars denote standard deviations. Spectra 1–7 represent binding of peptides with GST-Als5 in the following order of increasing concentrations of the peptides: 1: no peptide; 2: 0.037 µM; 3: 0.074 µM; 4: 0.443 µM; 5: 0.804 µM; 6: 1.154 µM; 7: 1.5 µM. (TIF) Click here for additional data file.

The target in test [2] is T2, GST-Als5-SS (Candida albicans, UniProt Q5A8T7).
T2 construct: made in house; host or cells: E. coli BL21(DE3)
The test can be described thus: biochemical. Format: binding. The method, then: as §1, §2
The change in fluorescence emission intensity upon titration with the peptide ligands was monitored (see Figures S8A, S8C, S8E, S8G and Figures S9A, S9C, S9E, S9G, respectively) and the binding plots obtained (Figures S8B, S8D, S8F, S8H and Figures S9B, S9D, S9F, S9H, respectively) were used to calculate dissociation constants (Kd) for the interaction (Table 1). […]

For test [3], the target named is T3, GST-Als5 (Candida albicans, UniProt Q5A8T7 20-1327).
T3 construct: source: E. coli BL21, purified (glutathione-agarose); not shown: GST, N-terminal, kept
T3 sequence: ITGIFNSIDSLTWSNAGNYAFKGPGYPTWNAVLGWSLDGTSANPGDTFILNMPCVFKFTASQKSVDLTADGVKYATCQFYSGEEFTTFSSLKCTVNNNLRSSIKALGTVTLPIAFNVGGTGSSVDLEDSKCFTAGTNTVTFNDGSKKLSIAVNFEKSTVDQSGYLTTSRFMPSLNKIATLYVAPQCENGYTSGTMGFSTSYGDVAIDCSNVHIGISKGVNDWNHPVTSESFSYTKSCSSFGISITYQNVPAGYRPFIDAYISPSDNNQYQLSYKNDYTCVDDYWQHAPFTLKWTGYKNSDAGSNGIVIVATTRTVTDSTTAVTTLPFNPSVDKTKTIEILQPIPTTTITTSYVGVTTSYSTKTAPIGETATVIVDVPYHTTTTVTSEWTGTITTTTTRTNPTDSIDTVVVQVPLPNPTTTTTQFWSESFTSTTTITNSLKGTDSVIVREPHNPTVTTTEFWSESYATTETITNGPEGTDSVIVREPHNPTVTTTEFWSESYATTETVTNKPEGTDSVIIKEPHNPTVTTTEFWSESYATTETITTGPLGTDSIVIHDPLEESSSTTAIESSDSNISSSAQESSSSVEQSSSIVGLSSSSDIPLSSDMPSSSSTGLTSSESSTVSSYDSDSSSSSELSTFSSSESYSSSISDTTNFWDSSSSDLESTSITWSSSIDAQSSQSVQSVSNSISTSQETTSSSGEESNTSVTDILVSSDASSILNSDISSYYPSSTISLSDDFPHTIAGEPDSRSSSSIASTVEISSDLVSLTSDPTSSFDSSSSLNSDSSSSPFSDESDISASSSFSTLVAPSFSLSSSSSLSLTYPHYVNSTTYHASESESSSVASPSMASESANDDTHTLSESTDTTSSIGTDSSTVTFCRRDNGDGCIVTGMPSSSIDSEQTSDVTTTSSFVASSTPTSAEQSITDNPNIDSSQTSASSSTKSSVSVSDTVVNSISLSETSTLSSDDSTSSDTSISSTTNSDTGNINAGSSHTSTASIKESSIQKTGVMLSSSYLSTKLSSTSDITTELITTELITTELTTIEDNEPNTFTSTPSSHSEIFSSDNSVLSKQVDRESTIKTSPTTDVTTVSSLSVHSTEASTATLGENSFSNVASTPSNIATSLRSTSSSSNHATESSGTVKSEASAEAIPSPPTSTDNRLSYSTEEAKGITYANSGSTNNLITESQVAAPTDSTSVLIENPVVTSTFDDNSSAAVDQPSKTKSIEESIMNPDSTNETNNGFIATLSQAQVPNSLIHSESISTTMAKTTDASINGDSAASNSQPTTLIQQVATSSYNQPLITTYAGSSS
Briefly: other fluorescence titration; tryptophan fluorescence of 0.02 mg/ml protein, peptide titrated in; one-site saturation model; 42 °C. Particulars: both partners purified.

Test [4] deals with T3, GST-Als5. The test can be described thus: other fluorescence titration; tryptophan fluorescence of 0.02 mg/ml protein, peptide titrated in; one-site saturation model; 52 °C (secondary structure of both proteins mildly perturbed at this temperature). Particulars: both partners purified.
The target in test [5] is T4, GST-Als5-SS (Candida albicans, UniProt Q5A8T7 20-1326, N-terminal GST tag (pGEX-6P-2) not cleaved, omitted here; expressed in E. coli, unglycosylated. The 4044 bp insert implies the full ORF, including the N-terminal secretion signal, although the figure). The description is as above. Particulars: both partners purified.
Test [6] concerns the target T3, GST-Als5. The test can be described thus: other fluorescence titration; van't Hoff plots of the association constants from the fluorescence titrations at different temperatures; ΔH° from the slope. The note with it: both partners purified.
Test [7] has as its target T4, GST-Als5-SS. Described as above. Particulars: both partners purified.
Where [8] appears, read: 15 °C, N.B. = no binding observed, emission 310-400 nm, average of three independent measurements in duplicates.
Where [9] appears, read: 27 °C, N.B. = no binding observed, average of three independent measurements in duplicates.
Setting [10] is: Kd, 37 °C, average of three independent measurements in duplicates.
[11] abbreviates: Kd, 47 °C, N.B. = no binding observed, average of three independent measurements in duplicates.
Where [12] appears, read: 15 °C, N.B. = no binding observed, 0.02 mg/ml protein, excitation 295 nm, emission 310-400 nm, one-site saturation model, average of three independent measurements in duplicates.
The mark [13] stands for this setting: Kd, 27 °C, N.B. = no binding observed, 0.02 mg/ml protein, excitation 295 nm, one-site saturation model, average of three independent measurements in duplicates.
[14] abbreviates: Kd, 37 °C, 0.02 mg/ml protein, excitation 295 nm, one-site saturation model, average of three independent measurements in duplicates.
Where [15] appears, read: Kd, 47 °C, N.B. = no binding observed, 0.02 mg/ml protein, excitation 295 nm, one-site saturation model, average of three independent measurements in duplicates.

T2 sequence (Q5A8T7 whole entry): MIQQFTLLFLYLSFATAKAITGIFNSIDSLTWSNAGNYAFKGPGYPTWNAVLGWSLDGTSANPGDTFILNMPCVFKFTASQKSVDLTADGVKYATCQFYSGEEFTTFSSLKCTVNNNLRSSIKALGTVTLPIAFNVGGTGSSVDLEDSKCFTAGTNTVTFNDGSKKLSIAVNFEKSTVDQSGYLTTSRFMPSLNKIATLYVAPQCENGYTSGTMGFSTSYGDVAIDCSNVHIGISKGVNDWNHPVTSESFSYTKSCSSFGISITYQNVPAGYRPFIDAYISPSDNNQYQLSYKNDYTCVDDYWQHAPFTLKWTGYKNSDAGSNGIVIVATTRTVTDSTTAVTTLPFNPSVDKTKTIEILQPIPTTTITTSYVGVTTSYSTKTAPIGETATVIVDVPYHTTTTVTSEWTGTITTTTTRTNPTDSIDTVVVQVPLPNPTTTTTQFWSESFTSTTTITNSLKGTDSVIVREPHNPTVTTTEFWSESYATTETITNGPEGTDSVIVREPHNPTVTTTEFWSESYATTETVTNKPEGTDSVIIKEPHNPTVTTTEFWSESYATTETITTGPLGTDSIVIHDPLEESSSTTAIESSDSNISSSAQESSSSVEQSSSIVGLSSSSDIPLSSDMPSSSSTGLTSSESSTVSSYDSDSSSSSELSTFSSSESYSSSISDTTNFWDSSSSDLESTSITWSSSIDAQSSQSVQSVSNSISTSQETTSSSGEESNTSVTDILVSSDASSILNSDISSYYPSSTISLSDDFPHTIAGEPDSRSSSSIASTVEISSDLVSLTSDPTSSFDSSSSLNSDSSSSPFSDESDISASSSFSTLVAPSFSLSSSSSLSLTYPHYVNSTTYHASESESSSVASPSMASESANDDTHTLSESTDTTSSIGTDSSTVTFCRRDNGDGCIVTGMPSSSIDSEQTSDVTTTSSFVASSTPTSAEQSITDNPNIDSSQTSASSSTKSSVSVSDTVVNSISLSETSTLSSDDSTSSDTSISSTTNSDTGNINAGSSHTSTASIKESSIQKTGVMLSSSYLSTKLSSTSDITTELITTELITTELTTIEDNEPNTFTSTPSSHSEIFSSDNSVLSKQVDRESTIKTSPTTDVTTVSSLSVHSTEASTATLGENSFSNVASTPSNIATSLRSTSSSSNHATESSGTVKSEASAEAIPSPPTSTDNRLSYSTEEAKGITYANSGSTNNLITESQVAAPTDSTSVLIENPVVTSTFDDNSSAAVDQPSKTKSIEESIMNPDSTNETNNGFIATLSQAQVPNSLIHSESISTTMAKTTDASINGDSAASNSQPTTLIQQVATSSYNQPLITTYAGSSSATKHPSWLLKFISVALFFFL
T1 sequence (Q5A8T7 1-1327): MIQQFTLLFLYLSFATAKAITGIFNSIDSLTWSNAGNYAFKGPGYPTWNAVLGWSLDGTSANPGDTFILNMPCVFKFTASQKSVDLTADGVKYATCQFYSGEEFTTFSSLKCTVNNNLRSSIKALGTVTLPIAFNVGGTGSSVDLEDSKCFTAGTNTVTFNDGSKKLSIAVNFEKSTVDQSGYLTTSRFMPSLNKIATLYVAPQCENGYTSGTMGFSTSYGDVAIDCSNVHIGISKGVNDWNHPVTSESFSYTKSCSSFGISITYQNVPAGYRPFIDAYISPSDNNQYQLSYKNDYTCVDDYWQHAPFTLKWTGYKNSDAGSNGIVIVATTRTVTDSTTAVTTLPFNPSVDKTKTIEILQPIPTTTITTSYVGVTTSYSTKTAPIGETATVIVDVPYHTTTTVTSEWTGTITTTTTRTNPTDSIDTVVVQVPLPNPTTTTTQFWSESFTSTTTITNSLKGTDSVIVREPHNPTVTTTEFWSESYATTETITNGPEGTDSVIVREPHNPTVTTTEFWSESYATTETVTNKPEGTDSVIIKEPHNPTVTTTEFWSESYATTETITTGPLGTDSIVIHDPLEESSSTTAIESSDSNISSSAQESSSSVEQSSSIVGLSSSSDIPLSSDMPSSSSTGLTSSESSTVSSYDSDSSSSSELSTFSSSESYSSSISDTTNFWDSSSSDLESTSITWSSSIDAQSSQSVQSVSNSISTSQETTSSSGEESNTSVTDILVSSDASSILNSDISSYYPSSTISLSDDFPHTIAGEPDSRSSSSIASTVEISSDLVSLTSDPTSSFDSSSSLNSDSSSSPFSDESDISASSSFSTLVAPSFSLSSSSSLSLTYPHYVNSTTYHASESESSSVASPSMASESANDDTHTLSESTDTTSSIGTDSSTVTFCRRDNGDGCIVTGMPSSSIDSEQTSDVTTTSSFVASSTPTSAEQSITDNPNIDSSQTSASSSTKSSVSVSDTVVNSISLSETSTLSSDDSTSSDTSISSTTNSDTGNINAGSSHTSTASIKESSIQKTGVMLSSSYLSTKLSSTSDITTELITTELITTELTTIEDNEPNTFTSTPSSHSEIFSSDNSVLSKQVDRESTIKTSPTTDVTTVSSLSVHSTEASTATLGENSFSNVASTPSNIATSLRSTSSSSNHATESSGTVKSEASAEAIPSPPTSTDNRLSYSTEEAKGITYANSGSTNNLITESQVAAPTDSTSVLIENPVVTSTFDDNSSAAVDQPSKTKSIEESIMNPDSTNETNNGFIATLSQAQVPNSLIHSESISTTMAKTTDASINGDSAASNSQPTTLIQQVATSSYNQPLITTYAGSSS

Take AYKSLMT [AYKSLMT]: the Kd result on GST-Als5 [1] (setting [8]) is “N.B”; at GST-Als5 [1] (setting [9]) it was “N.B”; on GST-Als5 [1] (setting [10]), 13 ± 7 nM; at GST-Als5 [1] (Kd, 42 °C), 9 ± 4 nM; at GST-Als5 [1] (setting [11]), 13 ± 6 nM; on GST-Als5-SS [2] (setting [12]) it was “N.B”. Further, the results for the Kd on GST-Als5-SS [2] (setting [13]), on GST-Als5-SS [2] (setting [14]) and at GST-Als5-SS [2] (setting [15]) were 77 ± 2 nM, 6 ± 0.2 nM and 9 ± 2 nM, respectively.

Regarding EHAHTPR [EHAHTPR], the Kd result at GST-Als5 [1] (setting [8]) was “N.B”; at GST-Als5 [1] (setting [9]), “N.B”; on GST-Als5 [1] (setting [10]), 160 ± 38 nM; at GST-Als5 [1] (Kd, 42 °C), 34 ± 8 nM; at GST-Als5 [1] (setting [11]) it was 34 ± 11 nM; at GST-Als5-SS [2] it was 65 ± 13 nM. Moreover, the Kd on GST-Als5-SS [2] (setting [13]) was determined as 82 ± 16 nM; at GST-Als5-SS [2] (setting [14]), 44 ± 4 nM; at GST-Als5-SS [2] (setting [15]), 25 ± 9 nM.

For KLRIPSV [KLRIPSV], the Kd entry was “N.B” at GST-Als5 [1] (setting [8]); “N.B” at GST-Als5 [1] (setting [9]); 34 ± 12 nM on GST-Als5 [1] (setting [10]); 7 ± 3 nM on GST-Als5 [1] (setting [11]); 7 ± 2 nM on GST-Als5 [1] (Kd, 52 °C (secondary structure of protein mildly perturbed)); “N.B” on GST-Als5-SS [2] (setting [12]). The equilibrium dissociation constant (Kd) was 53 ± 6 nM at GST-Als5-SS [2] (setting [13]), 17 ± 5 nM on GST-Als5-SS [2] (setting [14]) and 14 ± 2 nM at GST-Als5-SS [2] (setting [15]).

Consider VSPIRLK [scrambled peptide], for which the “binding (in words)” value at GST-Als5 [1] (27 °C and 47 °C) was “showed no affinity for either of the protein variants”; at GST-Als5-SS [2] (27 °C and 47 °C), “showed no affinity for either of the protein variants”. The Kd entry was “N.B” at GST-Als5 [1] (setting [9]); “N.B” at GST-Als5 [1] (47 °C, N.B. = no binding observed, average of three independent measurements in duplicates); “N.B” on GST-Als5-SS [2] (27 °C, N.B. = no binding observed, 0.02 mg/ml protein, excitation 295 nm, one-site saturation model, average of three independent measurements in duplicates); “N.B” on GST-Als5-SS [2] (47 °C, N.B. = no binding observed, 0.02 mg/ml protein, excitation 295 nm, one-site saturation model, average of three independent measurements in duplicates).

B1: EHAHTPR (peptide)
peptide: EHAHTPR
notes: source: synthetic peptide (USV Ltd.)
As to B1, the Kd worked out at 34 nM with GST-Als5 [3], 11 nM in the test with GST-Als5 [4] and 8 nM with GST-Als5-SS [5]. Further, the dH was determined as 33.4 kcal/mol with GST-Als5 [6] and 8.15 kcal/mol with GST-Als5-SS [7].

B2: KLRIPSV (peptide)
peptide: KLRIPSV
notes: as for B1
With B2, the Kd in the test with GST-Als5 [3] is 4 nM; in the test with GST-Als5 [4] it was 7 nM; with GST-Als5-SS [5] it was 5 nM. The dH is 22.5 kcal/mol with GST-Als5 [6] and 15.3 kcal/mol in the test with GST-Als5-SS [7].

For the origin of these results see paper PMC3324464, “The GPI Anchor Signal Sequence Dictates the Folding and Functionality of the Als5 Adhesin from Candida albicans” (PLoS ONE, 2012).
